pIC50: −log10 of the molar value. Read-outs that look alike come from different tables or passages of the source.
Columns and labels:
H1 receptor = target: T1, H1 receptor (Homo sapiens, UniProt P35367); test: Histamine-stimulated IL-6 production in HUVEC cells (RT-PCR); type: cell-based; conditions: for Anti-histamine activity (IL-6 production assay), in words: 10^−5 M; for Histamine-stimulated IL-6 production reduced to fraction of that observed with histamine stimulation: ethopropazine concentration 10^−4 M
T1 construct: endogenous in cells; host or cells: HUVEC
Experimental: In the present studies, HUVEC cells were plated and grown to confluence in 6-well plates. […] The total RNA was isolated using Tri-reagent and subjected to reverse transcription polymerase chain reaction (RT-PCR™) analysis of IL-6 production using semi-quantitative analysis against HPRT expression (control gene).

[1] = system: ovariectomized rats (OVX); conditions: OVX + PROM rats, cited from earlier work
[2] = post-menopausal women, 50 mg/day promethazine associated with estrogens; cited from earlier work
[3] = Cytotoxicity testing of promethazine enantiomers; type: cell-based
osteoclasts [4] = test: Osteoclast resorption assay on mammoth tusk slices; type: cell-based
Experimental: During this time, osteoclasts mature and degrade bone matrix. At the end of the incubation period, cells are removed, the specimen examined by SEM and the absorption area/slice is quantitated versus control (untreated) slices.

osteoclasts [5] = test: CalciFluor assay (OsteoAssay): calcium released by osteoclast-mediated resorptive activity; type: cell-based
From the text: A CalciFluor assay is used to measure the calcium that is released as a result of osteoclast-mediated resorptive activity. The first run of this assay looked at three new inventive compounds as well as establishing the data on the internal controls, (+/−)-promethazine and Alendronate (bis-phosphonate). The preliminary data on standards and inventive analogs is provided in Table 3, some general SAR (structure-activity relationships) trends are apparent.
The assay is optimized and dose-response data is generated on the Alendronate and Promethazine controls.

osteoclasts [6] = conditions: peak of resorption (4 days), n = 8; cited from earlier work
[7] = first run, preliminary data, read-out: OsteoAssay IC50

T1 sequence (P35367 whole entry): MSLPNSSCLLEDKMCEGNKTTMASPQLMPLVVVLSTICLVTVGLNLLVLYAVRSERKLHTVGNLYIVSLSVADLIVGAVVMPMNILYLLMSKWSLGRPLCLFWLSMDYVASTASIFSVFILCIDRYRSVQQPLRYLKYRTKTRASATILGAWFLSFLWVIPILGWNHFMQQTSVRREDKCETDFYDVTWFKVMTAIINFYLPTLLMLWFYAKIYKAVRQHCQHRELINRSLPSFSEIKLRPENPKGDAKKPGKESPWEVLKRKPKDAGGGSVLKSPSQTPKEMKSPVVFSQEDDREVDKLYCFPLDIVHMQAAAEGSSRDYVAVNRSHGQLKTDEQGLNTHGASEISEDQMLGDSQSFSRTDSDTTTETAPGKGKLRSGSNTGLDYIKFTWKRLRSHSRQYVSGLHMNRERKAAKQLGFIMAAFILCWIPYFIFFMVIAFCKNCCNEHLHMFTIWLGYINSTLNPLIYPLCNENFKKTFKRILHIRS

For `CCN(CC)C(C)CN1c2ccccc2Sc2ccccc21` (racemic) [Ethopropazine racemate, ethopropazine], the “Anti-histamine activity (IL-6 production assay), in words” value (“Anti-histamine activity” for short) (H1 receptor) was “so effective that resolution of the more active enantiomer could not be determined” and the “Histamine-stimulated IL-6 production reduced to fraction of that observed with histamine stimulation” value (H1 receptor) was “approximately one fifth”.
In the case of `CC(CN1c2ccccc2Sc2ccccc21)N(C)C` (racemic) [Promethazine racemate, promethazine], the Vertebra mg ([1]; 5th lumbar vertebra) is listed as 253 ± 24 mg, the Vertebra mm ([1]; 5th lumbar vertebra) is listed as 6.3 ± 0.3 mm and the “Cn-BV-TV (femur cancellous bone volume)” value [1] is listed as 12.5 ± 5.6%. The “F-BMC (femur bone mineral content)” value [1] was 336 ± 30 mg, the F-BMC/BW [1] was 1.06 ± 0.06 mg/g and the “F-BMD (femur bone mineral density)” value [1] was 125 ± 14 mg/cm^2. The Femur mg [1] was 716 ± 38 mg, the Femur mm [1] was 34.5 ± 0.7 mm and the “Tb-N (trabecular number)” value [1] was 2.1 ± 0.7 mm^−1. The “Tb-Sp (trabecular separation)” value [1] was 477 ± 215 μm, the “Tb-Th (trabecular thickness)” value [1] was 57.5 ± 7.3 μm and the “V-BMC (5th lumbar vertebral bone mineral content)” value [1] was 100 ± 10 mg. The “V-BMD (5th lumbar vertebral bone mineral density)” value [1] was 108 ± 6 mg/cm^2, the “Z score F-BMC” value [1] was −1.7 ± 0.9 and the “Annual gain in spinal bone mass” value [2] was 3%.
For `CC(CN(C)C)CN1c2ccccc2Sc2ccccc21` (racemic) [trimeprazine racemate, trimeprazine], the “Anti-histamine activity” value (H1 receptor) was “so effective that resolution of the more active enantiomer could not be determined”.
For `CCN(CC)C(C)CN1c2ccccc2Sc2ccccc21.Cl` (single isomer, unassigned) [ethopropazine (+) enantiomer], the “Anti-histamine activity” value (H1 receptor) was “so effective that resolution of the more active enantiomer could not be determined” and the “Histamine-stimulated IL-6 production reduced to fraction of that observed with histamine stimulation” value (H1 receptor) was “approximately two fifths”.
In the case of `CCN(CC)C(C)CN1c2ccccc2Sc2ccccc21.Cl` (single isomer, unassigned) [ethopropazine (−) enantiomer], the “Effectiveness relative to the (+) enantiomer (IL-6 reduction)” value (H1 receptor; ethopropazine) was “four times”, the “Effectiveness relative to the racemate (IL-6 reduction)” value (H1 receptor; ethopropazine) was “approximately twice” and the “Histamine-stimulated IL-6 production reduced to fraction of that observed with histamine stimulation” value (H1 receptor) was “one tenth”.
With `CC(CN(C)C)CN1c2ccccc2Sc2ccccc21` (single isomer, unassigned) [trimeprazine (+) enantiomer] the “Anti-histamine activity” value (H1 receptor) was “so effective that resolution of the more active enantiomer could not be determined”.
For `C[C@H](CN1c2ccccc2Sc2ccccc21)N(C)C` [(+)-PMZ, (R)-N,N-dimethyl-1-(10H-phenothiazin-10-yl)propan-2-amine], the “Cytotoxicity compared to the racemic mixture” value [3] was “did not have any significant increase in cytotoxicity”, the “Concentration needed for 90% inhibition of bone resorption compared with the racemate” value (osteoclasts [4]) was “two orders of magnitude lower” and the “Efficacy for osteoclast inhibition compared with the racemate and the (−) enantiomer” value (osteoclasts [4]) was “threefold higher”. For the same compound, the inhibition at 0.1 µM (osteoclasts [4]; Osteoclast, 336 h, 10^−7 M, 14 days, read-out: Inhibition of bone resorption) was 90% and the pIC50 (osteoclasts [5]; [7]) was > 6.00.
With `C[C@H](CN1c2ccccc2Sc2ccc(C(F)(F)F)cc21)N(C)C` [(R)-N,N-dimethyl-1-(2-(trifluoromethyl)-10H-phenothiazin-10-yl)propan-2-amine] the pIC50 (osteoclasts [5]; [7]) was < 5.00.
With `C[C@H](CN1c2ccccc2Sc2ccc(Cl)cc21)N(C)C` [(R)-l-(2-chloro-10H-phenothiazin-10-yl)-N,N-dimethylpropan-2-amine] the pIC50 (osteoclasts [5]; [7]) was < 5.00.
For `COc1ccc2c(c1)N(C[C@@H](C)N(C)C)c1ccccc1S2` [(R)-l-(2-methoxy-10H-phenothiazin-10-yl)-N,N-dimethylpropan-2-amine], the pIC50 (osteoclasts [5]; [7]) was > 6.00.
In the case of `NCCCC(O)(P(=O)(O)O)P(=O)(O)O` [Alendronate, alendronate], the pIC50 (osteoclasts [5]; optimized assay, dose response, FIG. 13, read-out: IC50, calcium release by osteoclast-mediated resorption) was ~5.00.
In the case of `CN/C(=N/CCSCc1nc[nH]c1C)NC#N` [Cimetidine, cimetidine], the “Active Osteoclasts (on-bone cells)” value (osteoclasts [6]) is given as 6.2 ± 0.8, the “Inactive Osteoclasts (off-bone cells)” value (osteoclasts [6]) is given as 3.1 ± 0.7 and the “OBIT (OBI, mean interface of the active cells with the bone surface)” value (osteoclasts [6]) is given as 24.7 ± .9. The RS (osteoclasts [6]) was 14.4 ± 2.0 and the “Total Osteoclasts” value (osteoclasts [6]) was 9.4 ± 1.4.
For `COc1ccc(CN(CCN(C)C)c2ccccn2)cc1` [Mepyramine, mepyramine], the “Active Osteoclasts (on-bone cells)” value (osteoclasts [6]) is listed as 9.6 ± 0.7, the “Inactive Osteoclasts (off-bone cells)” value (osteoclasts [6]) is listed as 5.7 ± 0.8 and the “OBIT (OBI, mean interface of the active cells with the bone surface)” value (osteoclasts [6]) is listed as 18.4 ± 0.8. For the same compound, the RS (osteoclasts [6]) was 17.6 ± 1.3 and the “Total Osteoclasts” value (osteoclasts [6]) was 15.3 ± 1.5.
With `C[C@@H](CN1c2ccccc2Sc2ccccc21)N(C)C` [promethazine (−) enantiomer, (S)-N,N-dimethyl-1-(10H-phenothiazin-10-yl)propan-2-amine] the “Cytotoxicity compared to the racemic mixture” value [3] was “the same was also true”.

— patent US20100285087A1, “SINGLE PHENOTHIAZINE ENANTIOMERS AS AGENTS FOR THE PREVENTION OF BONE LOSS” (The University Of Texas, priority 2003, published 2010)
